Series [1] has as its system EV71 strain BrCr. The series can be described thus: Cytopathic effect (CPE) reduction antiviral assay against EV71 in RD cells (MTS/PMS readout). In kind it is cell-based, human enterovirus 71. To be noted: for EC50: Enterovirus A, EV71 BrCr in RD cells, inhibition of virus-induced cell death, MTS/PMS, at least three independent dose-response curves; for SI (Selectivity Index): SI = CC50/EC50; for SI (Selectivity Index) / increase of SI relative to BAPR: EV71 BrCr, RD cells. How it is done:
(§1) (Table 2). As previously mentioned, modifications of the N^6-substituent (linker) of the BAPR scaffold led to a remarkable increase of selectivity. Here, we produced a series of BAPR analogues to evaluate the effect of the fluorination of BAPR on the replication of EV71. A cytopathic effect (CPE) reduction assay was performed with the newly synthetized analogues (compounds 5–11) in rhabdomyosarcoma (RD) cells. BAPR, N^6-isopenthenyladenosine, and N^6-furfuryladenosine were included in the screening, and the toxicity of all of the aforementioned compounds was evaluated in parallel on treated-uninfected cells.
An EV71 BrCr laboratory-adapted strain was used at a low multiplicity of infection (MOI) in a standardized antiviral assay. Briefly, freshly harvested rhadbdosarcoma (RD) cells were seeded in a 96-well plate (2 × 10^4 cells/well) and incubated at 37 °C in 5% CO2. The next day, a serial dilution of the compounds was prepared in assay medium and added to the RD cells. Then, the cells were supplemented with the viral suspension. […] Subsequently, the antiviral effect was quantified using a colorimetric readout with 3-(4,5-dimethylthiazol-2-yl)-5-(3-carboxymethoxyphenyl)-2-(4-sulfophenyl)-2H-tetrazolium/phenazine methosulfate (MTS/PMS method), and the concentration of compound at which a 50% inhibition of virus-induced cell death would be observed (EC50) was calculated from the antiviral dose-response curves. A similar assay setup was used to determine the adverse effect of the compound on uninfected, treated cells for the calculation of the CC50 (concentration of compound that reduces overall cell health with 50% as determined by the MTS/PMS method). […]

The nature of series [2]: Toxicity on treated, uninfected RD cells (MTS/PMS readout). The series is classed as cell-based. To be noted: human, uninfected rhabdomyosarcoma (RD) cells, uninfected, treated RD cells; MTS/PMS; at least three independent dose-response curves. The protocol:
as §1
(§2) An EV71 BrCr laboratory-adapted strain was used at a low multiplicity of infection (MOI) in a standardized antiviral assay. Briefly, freshly harvested rhadbdosarcoma (RD) cells were seeded in a 96-well plate (2 × 10^4 cells/well) and incubated at 37 °C in 5% CO2. The next day, a serial dilution of the compounds was prepared in assay medium and added to the RD cells. Then, the cells were supplemented with the viral suspension. […] Subsequently, the antiviral effect was quantified using a colorimetric readout with 3-(4,5-dimethylthiazol-2-yl)-5-(3-carboxymethoxyphenyl)-2-(4-sulfophenyl)-2H-tetrazolium/phenazine methosulfate (MTS/PMS method), and the concentration of compound at which a 50% inhibition of virus-induced cell death would be observed (EC50) was calculated from the antiviral dose-response curves. A similar assay setup was used to determine the adverse effect of the compound on uninfected, treated cells for the calculation of the CC50 (concentration of compound that reduces overall cell health with 50% as determined by the MTS/PMS method). The selectivity index (SI) was calculated as a ratio of […].

The test system of series [3] is rhabdomyosarcoma (RD) cells. The series is described as above. To be noted: for cytotoxicity (in words): uninfected RD cells, highest concentration tested. In kind it is cell-based. The protocol:
as §1, §2

`OC[C@H]1O[C@@H](n2cnc3c(NCc4cccc(F)c4)ncnc32)[C@H](O)[C@@H]1O` [Compound 6, N^6-(3-fluorobenzyl) adenosine]: in series [1], a half-maximal effect (EC50) was put at 0.24 ± 0.09 µM and the “SI (Selectivity Index)” value amounted to 26. Also, in series [2], the midpoint of cytotoxicity, the CC50, lay at 6.2 ± 1.8 µM.

`OC[C@H]1O[C@@H](n2cnc3c(NCc4c(F)cccc4F)ncnc32)[C@H](O)[C@@H]1O` [Compound 8, N^6-(2,6-difluorobenzyl) adenosine]: a half-maximal response in series [1] (EC50) required 0.21 ± 0.01 µM. In series [1], the “SI (Selectivity Index)” value is listed as more than 1210. The CC50 (commonly the concentration at which the toxic effect on the cells reaches its halfway point) in series [2] was more than 250 µM; in series [3] (uninfected, treated RD cells, MTS/PMS, at least three independent dose-response curves), more than 254 µM.

Take `CC(C)=CCNc1ncnc2c1ncn2[C@@H]1O[C@H](CO)[C@@H](O)[C@H]1O` [Compound 2, N^6-isopenthenyladenosine, reference compound]: in series [1], the EC50 (in general, the concentration at which the effect is half-maximal) is 1 ± 0.2 µM and the “SI (Selectivity Index)” value worked out at 6.0. Moreover, the midpoint of cytotoxicity in series [2], the CC50, lay at 6 ± 0.6 µM.

`OC[C@H]1O[C@@H](n2cnc3c(NCc4ccc(C(F)(F)F)cc4)ncnc32)[C@H](O)[C@@H]1O` [Compound 11, N^6-(4-trifluoromethylbenzyl) adenosine]: in series [1], the EC50 was found to be 1 ± 0.1 µM and the “SI (Selectivity Index)” value is recorded as more than 235. In addition, the CC50 in series [2] is more than 235 µM. The “cytotoxicity (in words)” value in series [3] is recorded as “did not show any cytotoxicity”.

For `OC[C@H]1O[C@@H](n2cnc3c(NCc4ccccc4F)ncnc32)[C@H](O)[C@@H]1O` [Compound 5, N^6-(2-fluorobenzyl) adenosine], in series [1], the EC50 stood at 0.3 ± 0.05 µM and the “SI (Selectivity Index)” value was determined as 44. Moreover, the CC50 in series [2] was determined as 13.3 ± 3.7 µM.

Take `OC[C@H]1O[C@@H](n2cnc3c(NCc4ccccc4)ncnc32)[C@H](O)[C@@H]1O` [Compound 1, N^6-benzyladenosine]: in series [1], a half-maximal effect (EC50) was put at 0.28 ± 0.05 µM and the “SI (Selectivity Index)” value is listed as 15. For the same compound, the CC50 in series [2] is 4.3 ± 1.6 µM.

As to `OC[C@H]1O[C@@H](n2cnc3c(NCc4ccccc4C(F)(F)F)ncnc32)[C@H](O)[C@@H]1O` [Compound 9, N^6-(2-trifluoromethylbenzyl) adenosine], in series [1], the concentration for a half-maximal effect (EC50) came out at 1 ± 0.1 µM and the “SI (Selectivity Index)” value is reported as more than 235. Also, the CC50 in series [2] was more than 235 µM. Also, the “cytotoxicity (in words)” value in series [3] was “did not show any cytotoxicity”.

As for `OC[C@H]1O[C@@H](n2cnc3c(NCc4ccc(F)cc4)ncnc32)[C@H](O)[C@@H]1O` [Compound 7, N^6-(4-fluorobenzyl) adenosine], the “increase of SI relative to BAPR” value in series [1] (relative to BAPR) is 1.25 times. Moreover, in series [1], the midpoint of the response, the EC50, lay at 0.14 ± 0.05 µM and the “SI (Selectivity Index)” value is recorded as 19. The compound also came in with a CC50 in series [2] of 2.7 ± 0.9 µM.

As to `OC[C@H]1O[C@@H](n2cnc3c(NCc4cccc(C(F)(F)F)c4)ncnc32)[C@H](O)[C@@H]1O` [Compound 10, N^6-(3-trifluoromethylbenzyl) adenosine], the “increase of SI relative to BAPR” value in series [1] (relative to BAPR) came out at 230 times. Besides, the “improvement (gain) in potency as compared to BAPR” value in series [1] (EV71 replication in RD cells, relative to BAPR) was “four-fold”. Moreover, in series [1], the EC50 came out at 0.068 ± 0.001 µM and the “SI (Selectivity Index)” value is more than 3456. Moreover, the CC50 in series [2] was more than 235 µM. Further, the “cytotoxicity (in words)” value in series [3] was “did not show any cytotoxicity”.

For `OC[C@H]1O[C@@H](n2cnc3c(NCc4ccco4)ncnc32)[C@H](O)[C@@H]1O` [Compound 3, N^6-furfuryladenosine, reference compound], in series [1], the EC50 came to 1.4 ± 0.3 µM and the “SI (Selectivity Index)” value is 5.6. Moreover, it took 7.8 ± 3.4 µM to reach half-maximal cytotoxicity in series [2] (CC50).

These data come from publication PMC6152005, “Fluorination of Naturally Occurring N^6-Benzyladenosine Remarkably Increased Its Antiviral Activity and Selectivity” (Molecules : A Journal of Synthetic Chemistry and Natural …, 2017).
